Where “and” joins values, the source holds several entries; their conditions need not be identical. Equal values may be shown once. Read-outs that look alike come from different tables or passages of the source.
What was measured:
[1] = in vitro; details: human, HepG2 cytotoxicity (CC50)
Method: (§1) Next, we conducted a more detailed investigation by performing dose–response assays with each compound on HepG2 hepatic epithelial cells, as the liver is one of the major organs affected in intestinal schistosomiasis.
(§2) More details are provided in the Supporting Information.
(§3) Adult worm ex-vivo high-content assay
(§4) Male and female worms were placed in 96-well microplates (one worm per well) and incubated […]
(§5) to 72 hours. Brightfield timelapse images (100 images, 0.3-second intervals) were captured from each well before, immediately after, and every 24 hours following compound addition using an ImageXpress Micro Confocal High Content System equipped with a 2x objective. Image analysis was performed through a custom pipeline in CellProfiler software (v. 4.2.1, Windows OS).57 During analysis, the area of each worm and its displacement between consecutive image captures (i.e., images taken at successive time points) were measured using the parameters “Area” and “False Negative Rate” from the MeasureObjectSizeShape and MeasureObjectOverlap modules, respectively. These measurements were then modeled by a multilevel generalized linear statistical model. The effects of the experimental treatments on parasite motility were estimated with the integrated nested Laplace approximation (INLA) method, available in the INLA package of R (https://www.r-inla.org). The half-maximal inhibitory concentration (EC50) of each compound was calculated based on the worms' estimated motility using the […] 4-parameter logistic equation in GraphPad Prism version 9.0.0 for Windows (GraphPad Software, Boston, MA, USA; www.graphpad.com). […]
(§6) either at a fixed concentration (10 µM) or across a range of concentrations (0.0001–300 µM), or with DMSO as a negative control. Two hours before the end of the experiment (t0), a resazurin solution (final concentration: 0.01 mg/mL) was added to each well and the first fluorescence […]
(§7) reader. At the end of the incubation (t1), a second reading was performed. The fluorescence attributed solely to resorufin was measured by subtracting the fluorescence readings at t0 from those at t1. The results were expressed as percentual cell viability considering negative control

[2] = tested on: HepG2 hepatic epithelial cells; assay: in vitro; details: for Selectivity Index (CC50/EC50), Female: HepG2 CC50 / female worm motility EC50, 48 h; for Selectivity Index (CC50/EC50), Male: HepG2 CC50 / male worm motility EC50, 48 h
Method: as §1, §2, §3, §4, §5, §6, §7

[3] = tested on: Fh.TRPMPZQ; assay: Ca2+ reporter (FLIPR) activation assay, Fh.TRPMPZQ in HEK293 cells; type: cell-based, Fasciola hepatica; details: at the tested concentrations, data not shown
Method: (§8) Finally, selectivity for Sm.TRPMPZQ was assessed by profiling responses on the F. hepatica (Fh.TRPMPZQ) and E. granulosus (Eg.TRPMPZQ) TRPMPZQ orthologs, as well as the schistosome TRPM paralog Sm.TRPMMCLZ, a distinct TRPM channel activated by meclonazepam. Meclonazepam is an anthelmintic benzodiazepine known for its toxicity to juvenile schistosome worms.
(§9) The Ca^2+ reporter assay was performed using a Fluorescence Imaging Plate Reader (FLIPR) system, as described in the Supporting Information. […]
(§10) The half-maximal inhibitory
(§11) Windows (GraphPad Software, Boston, MA, USA; www.graphpad.com). […]
(§12) with DMSO as a negative control. […]
(§13) reader. […] The fluorescence
(§14) Untransfected HEK293 cells were used as a control.
(§15) 10% fetal bovine serum (FBS). […]
(§16) atmosphere containing 5% CO₂. Following incubation, the growth medium was removed and […]
(§17) buffer containing 2.5 mM probenecid in HBSS (with Ca²⁺ and Mg²⁺), 20 mM HEPES, 0.3% BSA (Sigma, A7030), and 0.03% L-ascorbic acid (Sigma). Cells were incubated for 40 minutes at 37 °C and subsequently for 20 minutes at room temperature. A total of seven PZQ derivatives were tested, using racemic PZQ included as a positive control on each assay plate. Drug dilutions were prepared in assay buffer without dye and probenecid and dispensed into separate flat-bottom 384-well plates. Calcium flux measurements were performed at room temperature using a […]
(§18) instrument (Molecular Devices). Baseline fluorescence was recorded for 20 seconds, followed by the addition of 5 µL of each drug solution, after which fluorescence was measured continuously for 250 seconds. […]

[4] = tested on: juvenile schistosomes; assay: Microscopy analysis of juvenile morphology and motility (viability score 0-3); details: 72 h; for number of juvenile worms with viability score 0 / number of juvenile worms with viability score 1 / number of juvenile worms with viability score 2 / number of juvenile worms with viability score 3: 10 μM, Table S1
[5] = tested on: adult schistosomes (male and female worms); assay: Adult worm ex vivo high-content image-based motility assay; type: cell-based, Schistosoma mansoni
[6] = tested on: Sm.TRPMMCLZ; assay: Ca2+ reporter (FLIPR) activation assay, Sm.TRPMMCLZ in HEK293 cells; type: cell-based, Schistosoma mansoni; details: at the tested concentrations, data not shown
Method: as §8, §9, §10, §11, §12, §13, §14, §15, §16, §17, §18

[7] = target: Sm.TRPMPZQ (wild-type) (Schistosoma mansoni, UniProt A0A5K4F0X5); assay: Ca2+ reporter (FLIPR) activation assay, wild-type Sm.TRPMPZQ in HEK293 cells; type: cell-based; details: for EC50: 0.001 to 100 μM; for Emax: read-out: Bmax, wild-type Sm.TRPMPZQ activation
Method in brief: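 Wild-type Sm.TRPMPZQ in HEK293 cells, with untransfected HEK293 as control. Cells dye-loaded in HBSS/20 mM HEPES buffer with 2.5 mM probenecid, 0.3% BSA and 0.03% ascorbic acid (40 min 37 °C, then 20 min RT). FLIPR Ca²⁺ flux at room temperature: 20 s baseline, then drug addition, then 250 s recording.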

[8] = target: Eg.TRPMPZQ (Echinococcus granulosus, UniProt W6UVV9); assay: cell-based; details: HEK293, Ca2+ reporter, mean ± standard deviation; read-out: Bmax, Eg.TRPMPZQ activation
[9] = values of independent experiments
[10] = Schistosoma mansoni, 0 h, female adult worms, 0 h (immediately after addition), single experiment or geometric mean, read-out: Female worm motility inhibition (EC50)
[11] = Schistosoma mansoni, 0 h, male adult worms, 0 h (immediately after addition), single experiment or geometric mean, read-out: Male worm motility inhibition (EC50)
[12] = Schistosoma mansoni, 0 h, male, 0 h, individual experiments, read-out: Male worm motility inhibition (EC50), values of independent experiments
[13] = Schistosoma mansoni, 24 h, female adult worms, 24 h, single experiment or geometric mean, read-out: Female worm motility inhibition (EC50)
[14] = Schistosoma mansoni, 24 h, male adult worms, 24 h, single experiment or geometric mean, read-out: Male worm motility inhibition (EC50)
[15] = Schistosoma mansoni, 24 h, male, 24 h, individual experiments, read-out: Male worm motility inhibition (EC50), values of independent experiments
[16] = Schistosoma mansoni, 48 h, female adult worms, 48 h, single experiment or geometric mean, read-out: Female worm motility inhibition (EC50)
[17] = Schistosoma mansoni, 48 h, male adult worms, 48 h, single experiment or geometric mean, read-out: Male worm motility inhibition (EC50)
[18] = Schistosoma mansoni, 72 h, female adult worms, 72 h, single experiment or geometric mean, read-out: Female worm motility inhibition (EC50)
[19] = Schistosoma mansoni, 72 h, male adult worms, 72 h, single experiment or geometric mean, read-out: Male worm motility inhibition (EC50)
[20] = Schistosoma mansoni, 72 h, male, 72 h, individual experiments, read-out: Male worm motility inhibition (EC50), values of independent experiments
[21] = female, 0 h, individual experiments, read-out: Female worm motility inhibition (EC50), values of independent experiments
[22] = female, 48 h, individual experiments, read-out: Female worm motility inhibition (EC50), values of independent experiments
[23] = male, 0 h, individual experiments, read-out: Male worm motility inhibition (EC50), values of independent experiments
[24] = male, 24 h, individual experiments, read-out: Male worm motility inhibition (EC50), values of independent experiments
[25] = male, 48 h, individual experiments, read-out: Male worm motility inhibition (EC50), values of independent experiments
[26] = male, 72 h, individual experiments, read-out: Male worm motility inhibition (EC50), values of independent experiments

Chain of Sm.TRPMPZQ (wild-type) (A0A5K4F0X5 entry or part of it): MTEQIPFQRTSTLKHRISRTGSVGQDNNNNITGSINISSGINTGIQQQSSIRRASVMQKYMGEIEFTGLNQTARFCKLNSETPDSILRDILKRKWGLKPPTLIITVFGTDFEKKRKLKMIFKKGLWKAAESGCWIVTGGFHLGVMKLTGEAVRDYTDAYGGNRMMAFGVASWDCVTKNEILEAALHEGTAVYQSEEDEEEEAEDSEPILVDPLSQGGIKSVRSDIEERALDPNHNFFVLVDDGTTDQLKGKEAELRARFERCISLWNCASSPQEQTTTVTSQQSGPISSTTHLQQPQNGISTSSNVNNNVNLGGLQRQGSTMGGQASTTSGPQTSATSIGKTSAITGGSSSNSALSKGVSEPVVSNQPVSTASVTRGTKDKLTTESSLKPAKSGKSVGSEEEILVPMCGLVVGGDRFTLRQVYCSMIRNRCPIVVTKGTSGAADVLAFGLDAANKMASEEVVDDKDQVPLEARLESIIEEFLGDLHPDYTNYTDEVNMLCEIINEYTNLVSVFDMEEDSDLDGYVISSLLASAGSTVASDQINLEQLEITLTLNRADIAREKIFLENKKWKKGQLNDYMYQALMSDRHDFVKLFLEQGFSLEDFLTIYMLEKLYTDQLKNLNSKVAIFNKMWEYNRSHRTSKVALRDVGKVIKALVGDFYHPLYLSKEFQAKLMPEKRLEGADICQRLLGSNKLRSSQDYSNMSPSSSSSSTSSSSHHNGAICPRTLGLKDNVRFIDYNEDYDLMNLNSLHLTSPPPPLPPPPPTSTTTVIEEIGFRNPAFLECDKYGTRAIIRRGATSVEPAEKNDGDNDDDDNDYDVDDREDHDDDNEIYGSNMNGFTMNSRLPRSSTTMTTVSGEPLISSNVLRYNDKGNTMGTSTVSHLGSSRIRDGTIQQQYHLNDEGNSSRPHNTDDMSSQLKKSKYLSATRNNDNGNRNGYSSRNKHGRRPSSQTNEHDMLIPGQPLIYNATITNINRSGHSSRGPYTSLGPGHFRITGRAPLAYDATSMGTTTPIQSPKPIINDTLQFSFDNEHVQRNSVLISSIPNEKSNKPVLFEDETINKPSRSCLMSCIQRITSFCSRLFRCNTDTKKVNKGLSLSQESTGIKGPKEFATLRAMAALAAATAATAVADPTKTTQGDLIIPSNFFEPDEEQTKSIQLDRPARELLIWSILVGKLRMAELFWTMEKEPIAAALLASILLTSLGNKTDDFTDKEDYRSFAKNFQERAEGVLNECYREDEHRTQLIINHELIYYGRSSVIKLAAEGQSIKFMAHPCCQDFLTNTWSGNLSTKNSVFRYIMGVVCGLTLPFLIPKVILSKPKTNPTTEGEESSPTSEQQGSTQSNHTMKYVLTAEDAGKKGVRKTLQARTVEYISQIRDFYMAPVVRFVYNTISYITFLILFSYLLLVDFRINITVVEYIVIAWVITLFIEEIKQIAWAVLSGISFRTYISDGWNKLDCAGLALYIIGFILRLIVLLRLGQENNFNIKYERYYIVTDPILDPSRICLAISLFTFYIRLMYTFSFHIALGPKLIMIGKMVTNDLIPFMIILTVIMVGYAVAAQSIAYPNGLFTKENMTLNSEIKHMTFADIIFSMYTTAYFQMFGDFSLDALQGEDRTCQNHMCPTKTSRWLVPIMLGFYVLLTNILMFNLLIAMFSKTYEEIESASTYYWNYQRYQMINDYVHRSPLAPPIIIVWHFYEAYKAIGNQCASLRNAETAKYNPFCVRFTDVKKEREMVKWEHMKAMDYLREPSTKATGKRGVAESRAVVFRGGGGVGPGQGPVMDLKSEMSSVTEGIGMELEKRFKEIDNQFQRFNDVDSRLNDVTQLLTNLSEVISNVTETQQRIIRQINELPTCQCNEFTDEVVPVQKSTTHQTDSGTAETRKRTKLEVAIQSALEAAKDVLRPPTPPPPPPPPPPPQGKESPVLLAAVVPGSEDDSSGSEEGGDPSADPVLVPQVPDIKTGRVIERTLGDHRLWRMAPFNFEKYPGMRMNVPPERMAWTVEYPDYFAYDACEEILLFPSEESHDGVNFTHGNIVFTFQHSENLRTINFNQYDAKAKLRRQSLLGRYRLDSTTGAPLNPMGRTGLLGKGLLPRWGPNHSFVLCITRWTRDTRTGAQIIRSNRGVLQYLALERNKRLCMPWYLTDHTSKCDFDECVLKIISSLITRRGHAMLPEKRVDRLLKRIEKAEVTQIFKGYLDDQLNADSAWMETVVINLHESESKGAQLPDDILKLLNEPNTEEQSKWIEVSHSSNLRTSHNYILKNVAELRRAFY
Chain of Eg.TRPMPZQ (W6UVV9 entry or part of it): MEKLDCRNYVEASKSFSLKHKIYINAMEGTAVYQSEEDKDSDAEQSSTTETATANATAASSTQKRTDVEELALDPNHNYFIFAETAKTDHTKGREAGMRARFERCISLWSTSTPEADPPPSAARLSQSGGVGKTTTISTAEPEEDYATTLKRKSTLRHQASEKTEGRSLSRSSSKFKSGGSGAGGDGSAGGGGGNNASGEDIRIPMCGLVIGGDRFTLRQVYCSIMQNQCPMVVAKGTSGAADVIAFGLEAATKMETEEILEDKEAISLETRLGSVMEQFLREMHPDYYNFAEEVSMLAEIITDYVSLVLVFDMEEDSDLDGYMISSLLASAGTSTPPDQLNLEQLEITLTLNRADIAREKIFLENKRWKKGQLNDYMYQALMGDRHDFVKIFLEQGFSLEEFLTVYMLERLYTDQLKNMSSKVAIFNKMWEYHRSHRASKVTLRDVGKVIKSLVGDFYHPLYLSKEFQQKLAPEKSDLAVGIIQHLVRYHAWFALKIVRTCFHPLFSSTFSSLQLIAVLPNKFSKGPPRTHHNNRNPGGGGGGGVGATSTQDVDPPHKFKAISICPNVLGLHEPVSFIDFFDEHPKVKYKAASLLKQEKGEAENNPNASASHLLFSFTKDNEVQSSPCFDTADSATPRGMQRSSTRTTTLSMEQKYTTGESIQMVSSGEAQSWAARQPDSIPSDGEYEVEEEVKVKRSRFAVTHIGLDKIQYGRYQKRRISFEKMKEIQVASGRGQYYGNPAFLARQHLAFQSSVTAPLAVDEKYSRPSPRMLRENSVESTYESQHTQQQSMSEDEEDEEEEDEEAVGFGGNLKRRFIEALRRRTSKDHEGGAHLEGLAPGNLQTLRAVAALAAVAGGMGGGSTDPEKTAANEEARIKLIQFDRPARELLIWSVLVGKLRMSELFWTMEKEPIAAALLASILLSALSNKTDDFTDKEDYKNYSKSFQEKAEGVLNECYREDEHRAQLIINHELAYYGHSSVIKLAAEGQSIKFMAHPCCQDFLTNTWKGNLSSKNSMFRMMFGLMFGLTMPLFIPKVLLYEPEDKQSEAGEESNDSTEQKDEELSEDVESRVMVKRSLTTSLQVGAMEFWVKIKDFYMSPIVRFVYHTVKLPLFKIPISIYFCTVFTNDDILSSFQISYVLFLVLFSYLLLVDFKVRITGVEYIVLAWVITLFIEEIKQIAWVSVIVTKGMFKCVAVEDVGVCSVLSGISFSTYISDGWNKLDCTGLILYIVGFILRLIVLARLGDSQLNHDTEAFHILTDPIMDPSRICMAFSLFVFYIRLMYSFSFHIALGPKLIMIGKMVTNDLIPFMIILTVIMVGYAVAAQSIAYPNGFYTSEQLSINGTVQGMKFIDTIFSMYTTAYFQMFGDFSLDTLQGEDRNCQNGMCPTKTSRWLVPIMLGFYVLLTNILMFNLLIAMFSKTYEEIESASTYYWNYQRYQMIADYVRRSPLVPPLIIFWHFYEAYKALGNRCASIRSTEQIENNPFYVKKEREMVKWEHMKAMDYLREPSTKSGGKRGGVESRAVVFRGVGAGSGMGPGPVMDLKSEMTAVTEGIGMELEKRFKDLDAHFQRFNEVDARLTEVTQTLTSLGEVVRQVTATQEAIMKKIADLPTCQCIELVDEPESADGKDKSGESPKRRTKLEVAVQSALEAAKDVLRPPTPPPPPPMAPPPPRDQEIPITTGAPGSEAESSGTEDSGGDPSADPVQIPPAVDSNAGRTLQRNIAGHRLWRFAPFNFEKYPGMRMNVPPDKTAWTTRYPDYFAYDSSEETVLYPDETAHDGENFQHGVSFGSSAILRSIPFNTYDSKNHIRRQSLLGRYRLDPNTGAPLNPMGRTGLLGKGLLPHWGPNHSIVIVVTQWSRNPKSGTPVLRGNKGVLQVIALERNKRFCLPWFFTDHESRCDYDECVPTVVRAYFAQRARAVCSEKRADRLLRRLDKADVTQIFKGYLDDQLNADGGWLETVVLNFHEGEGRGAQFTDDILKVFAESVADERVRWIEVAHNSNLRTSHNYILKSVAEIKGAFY

Structure (SMILES)	CC50 at 48 h [1] [nM]	CC50 at 48 h [1, 9] [nM]	Selectivity Index (CC50/EC50), Female [2]	Selectivity Index (CC50/EC50), Male [2]	activation of Fh.TRPMPZQ [3]	number of juvenile worms with viability score 0 [4]	number of juvenile worms with viability score 1 [4]	number of juvenile worms with viability score 2 [4]	number of juvenile worms with viability score 3 [4]	EC50 [5, 10] [nM]	EC50 [5, 11] [nM]	EC50 [5, 12] [nM]	EC50 [5, 13] [nM]	EC50 [5, 14] [nM]	EC50 [5, 15] [nM]	EC50 [5, 16] [nM]	EC50 [5, 17] [nM]	EC50 [5, 18] [nM]	EC50 [5, 19] [nM]	EC50 [5, 20] [nM]	further results
[N-]=[N+]=Nc1ccc2c(c1)C1CN(C(=O)C3CCCCC3)CC(=O)N1CC2 (stereo not shown) [Compound 4]	156000	155000	16.6 and 17	97.7 and 98	did not activate	48	4	25	12	6700	2300	2830	3150	1800	2560	9400	1600	3480	1300	1220	EC50 ([5]; Schistosoma mansoni, male, 0-72 h, read-out: EC50 against male adult worms (motility), span over incubation times): 1300 to 2300 nM; EC50 ([5]; female adult worms, 24 h, single experiment or geometric mean, read-out: Female worm motility inhibition (EC50)): 3100 nM; EC50 ([5]; female adult worms, 72 h, single experiment or geometric mean, read-out: Female worm motility inhibition (EC50)): 3500 nM; EC50 [5, 21]: 14800 nM and 3020 nM; EC50 [5, 22]: 26800 nM and 3340 nM; EC50 [5, 23]: 1930 nM; EC50 [5, 24]: 1420 nM and 1740 nM; EC50 [5, 25]: 2370 nM and 1100 nM and 1710 nM; EC50 [5, 26]: 1000 nM and 1720 nM; activation of Sm.TRPMMCLZ [6]: did not activate; EC50 [7]: 890 ± 30 nM; Emax [7]: 80.5 ± 2.19%; Emax [8]: 145 ± 14.6%
CCCc1cn(-c2ccc3c(c2)C2CN(C(=O)C4CCCCC4)CC(=O)N2CC3)nn1 (stereo not shown) [Compound 5e]	~300000	286000	75.4 and 75	154.7 and 155	did not activate	61	7	34	6	3500	2600	2500	3600	2500	2290	3900	1900	3100	1700	1640	Selectivity Index (SI), sex not specified ([2]; HepG2 vs adult worms, 48 h): > 100; viability at 10 µM ([4]; Schistosoma mansoni, read-out: Relative frequency of viability score 3): 5.6%; EC50 ([5]; Schistosoma mansoni, 0 h, female, 0 h, individual experiments, read-out: Female worm motility inhibition (EC50), values of independent experiments): 2980 nM; EC50 ([5]; Schistosoma mansoni, 24 h, female, 24 h, individual experiments, read-out: Female worm motility inhibition (EC50), values of independent experiments): 3700 nM; EC50 ([5]; Schistosoma mansoni, 48 h, female, 48 h, individual experiments, read-out: Female worm motility inhibition (EC50), values of independent experiments): 3140 nM; EC50 ([5]; Schistosoma mansoni, 48 h, male and female, 48 h, read-out: EC50 against schistosomes (adult motility), span over male and female): 1900 to 3900 nM; EC50 ([5]; Schistosoma mansoni, 48 h, male, 48 h, individual experiments, read-out: Male worm motility inhibition (EC50), values of independent experiments): 1700 nM; EC50 ([5]; Schistosoma mansoni, 72 h, female, 72 h, individual experiments, read-out: Female worm motility inhibition (EC50), values of independent experiments): 2940 nM; EC50 ([5]; Schistosoma mansoni, female, 0-72 h, read-out: EC50 against female adult worms (motility), span over incubation times): 3100 to 3900 nM; EC50 [5, 21]: 2780 nM; EC50 [5, 22]: 4770 nM; EC50 ([5]; female, 72 h, individual experiments, read-out: Female worm motility inhibition (EC50), values of independent experiments): 3300 nM; EC50 [5, 23]: 2680 nM; EC50 [5, 24]: 2320 nM and 2840 nM; EC50 [5, 25]: 2120 nM and 1990 nM; EC50 [5, 26]: 1990 nM; activation of Sm.TRPMMCLZ [6]: did not activate; EC50 [7]: 4230 ± 150 nM; Emax [7]: 90.2 ± 1.53%; Emax [8]: 132 ± 15%

From PMC12718081 (ACS Infectious Diseases, 2025)
